The text below walks through data of PubChem BioAssay (NCI).

Some test systems named below: ACHN renal; HL-60(TB) leukemia; LOX IMVI melanoma; OVCAR-3 ovarian; OVCAR-4 ovarian; OVCAR-8 ovarian; SF-295 CNS; SK-MEL-5 melanoma; SW-620 colon; UACC-257 melanoma.
Assay in all cases: NCI anticancer screen, dose series, 48 h

Structures are written as SMILES.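 Five compound concentrations were applied to cells in 96-well plates for 48 hours; endpoints were derived by simple linear interpolation of the resulting dose-response curve. GI50: concentration for 50% inhibition of growth. TGI denotes the concentration required for complete inhibition of growth.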

For `NC(=O)c1c(NC(=O)c2ccccc2)sc2c1CCC(=O)C2`, the GI50 is 0.698 µM in the assay on ACHN renal; 0.378 µM in the assay with HL-60(TB) leukemia; 1.15 µM in the assay on LOX IMVI melanoma; 1.02 µM in the assay on OVCAR-3 ovarian; 0.732 µM in the assay on OVCAR-4 ovarian; 1.33 µM with OVCAR-8 ovarian. Also, the GI50 in the assay with SF-295 CNS is 2.69 µM; in the assay with SK-MEL-5 melanoma, 1.64 µM; in the assay with SW-620 colon, 0.352 µM; with UACC-257 melanoma it was 2.21 µM. Further, the TGI in the assay with ACHN renal is 2.48 µM; in the assay with HL-60(TB) leukemia, 3.57 µM; in the assay with LOX IMVI melanoma, 19.5 µM; with OVCAR-3 ovarian, 2.72 µM; in the assay on OVCAR-4 ovarian, 2.01 µM; in the assay on OVCAR-8 ovarian, > 100 µM. For the same molecule, the TGI with SF-295 CNS was 7.94 µM; in the assay on SK-MEL-5 melanoma it was 3.04 µM; in the assay with SW-620 colon, 2.93 µM; in the assay on UACC-257 melanoma, 6.13 µM.
For `O=S(=O)(O)C(CO)c1ccccc1` (stereo not given) (tested in a mixture with another compound), the TGI in the assay on ACHN renal was > 100 µM; in the assay on HL-60(TB) leukemia, > 44.5 µM; with LOX IMVI melanoma it was > 100 µM; in the assay with OVCAR-3 ovarian, > 100 µM; in the assay with OVCAR-4 ovarian it was > 100 µM; in the assay on OVCAR-8 ovarian, > 100 µM. In addition, the TGI in the assay on SF-295 CNS, in the assay on SK-MEL-5 melanoma, in the assay with SW-620 colon and in the assay with UACC-257 melanoma was > 100 µM in each case.
Take `N[C@@H](Cc1ccccc1)C(=O)N1CCC[C@@H]1P(=O)(Oc1ccccc1)Oc1ccccc1`: the TGI in the assay with ACHN renal, in the assay on HL-60(TB) leukemia, in the assay on LOX IMVI melanoma, in the assay on OVCAR-3 ovarian, with OVCAR-4 ovarian and with OVCAR-8 ovarian was > 100 µM each time. Moreover, the TGI in the assay on SF-295 CNS, in the assay on SK-MEL-5 melanoma, in the assay with SW-620 colon and in the assay with UACC-257 melanoma was > 100 µM each time.
`CCOC(=O)c1c(-c2ccc(O)c(OC)c2)c(C#N)c(=S)n(C2OC(CO)C(O)C(O)C2O)c1-c1ccccc1` (stereo not given): the TGI in the assay on ACHN renal, with HL-60(TB) leukemia, in the assay on LOX IMVI melanoma, with OVCAR-3 ovarian, with OVCAR-4 ovarian and in the assay with OVCAR-8 ovarian was > 100 µM throughout. The TGI with SF-295 CNS, in the assay with SK-MEL-5 melanoma, in the assay with SW-620 colon and in the assay on UACC-257 melanoma was > 100 µM in each case.
`CC1(C)OC[C@@H](O)[C@H](C#N)CO1`: the TGI with ACHN renal, in the assay on HL-60(TB) leukemia, with LOX IMVI melanoma, with OVCAR-3 ovarian, in the assay with OVCAR-4 ovarian and in the assay on OVCAR-8 ovarian was > 100 µM in each case. Besides, the TGI in the assay on SF-295 CNS, with SK-MEL-5 melanoma, in the assay on SW-620 colon and in the assay with UACC-257 melanoma was > 100 µM each time.
On to `CCCNc1ncnc2c1ncn2C`, for which the TGI in the assay with ACHN renal is > 100 µM; with HL-60(TB) leukemia it was 96.3 µM; in the assay with LOX IMVI melanoma it was > 100 µM; with OVCAR-3 ovarian, > 100 µM; with OVCAR-4 ovarian, > 100 µM; with OVCAR-8 ovarian it was > 100 µM. Besides, the TGI in the assay on SF-295 CNS, in the assay with SK-MEL-5 melanoma, in the assay on SW-620 colon and in the assay on UACC-257 melanoma was > 100 µM each time.
As for `O=C(O)CN1CCNCCN(CC(=O)O)CCN(CC(=O)O)CCNCC1`, the TGI in the assay on ACHN renal was > 100 µM; in the assay on HL-60(TB) leukemia, 64.6 µM; in the assay with LOX IMVI melanoma it was > 100 µM; with OVCAR-3 ovarian it was > 100 µM; in the assay with OVCAR-4 ovarian, > 100 µM; in the assay on OVCAR-8 ovarian it was > 100 µM. The TGI with SF-295 CNS, with SK-MEL-5 melanoma, in the assay with SW-620 colon and in the assay with UACC-257 melanoma was > 100 µM in each case.
For the molecule `COC(=O)C(Cc1ccc2c(c1)CCC2)Cc1ccc2c(c1)CCC2`, the TGI in the assay on ACHN renal is > 100 µM; with HL-60(TB) leukemia, 88.8 µM; in the assay on LOX IMVI melanoma, 60.4 µM; in the assay with OVCAR-3 ovarian, > 100 µM; in the assay on OVCAR-4 ovarian it was > 100 µM; with OVCAR-8 ovarian it was > 100 µM. For the same molecule, the TGI with SF-295 CNS, in the assay with SK-MEL-5 melanoma, in the assay with SW-620 colon and with UACC-257 melanoma was > 100 µM throughout.
Take `Cn1c(SCc2ccc(F)cc2)nnc1C12CC3CC(CC(C3)C1)C2`: the TGI was > 100 µM in the assay on ACHN renal; 28.6 µM with HL-60(TB) leukemia; 45.6 µM with LOX IMVI melanoma; 85.5 µM in the assay with OVCAR-3 ovarian; > 100 µM with OVCAR-4 ovarian; > 100 µM in the assay on OVCAR-8 ovarian. Moreover, the TGI in the assay with SF-295 CNS is > 100 µM; with SK-MEL-5 melanoma, 26.6 µM; in the assay with SW-620 colon, > 100 µM; in the assay with UACC-257 melanoma, 91.7 µM.
As to `O=C(O)COc1ccccc1C(=O)Nc1ccccc1`, the TGI in the assay with ACHN renal, with HL-60(TB) leukemia, with LOX IMVI melanoma, in the assay on OVCAR-3 ovarian, in the assay on OVCAR-4 ovarian and in the assay with OVCAR-8 ovarian was > 100 µM throughout. The TGI in the assay on SF-295 CNS, in the assay with SK-MEL-5 melanoma, with SW-620 colon and in the assay with UACC-257 melanoma was > 100 µM each time.
As for `O=C(O)CCNc1ncnc2nc[nH]c12`, the TGI in the assay with ACHN renal, in the assay with HL-60(TB) leukemia, in the assay on LOX IMVI melanoma, in the assay with OVCAR-3 ovarian, in the assay with OVCAR-4 ovarian and in the assay on OVCAR-8 ovarian was > 100 µM throughout. Further, the TGI in the assay with SF-295 CNS, with SK-MEL-5 melanoma, in the assay with SW-620 colon and in the assay on UACC-257 melanoma was > 100 µM each time.
